Active and inactive are the calls of the source. The calls are words filed in the database; no cut-off is given here.
Columns and labels:
Pseudomonas aeruginosa [1] = experiment: Antimicrobial activity against Pseudomonas aeruginosa SR24 in presence of human apo-transferrin by broth microdilution method; format: functional
Pseudomonas aeruginosa [2] = experiment: Antimicrobial activity against AmpC overproducing Pseudomonas aeruginosa SR24-12 in presence of human apo-transferrin by broth microdilution method; format: functional
Pseudomonas aeruginosa [3] = experiment: Antimicrobial activity against IMP-1 producing Pseudomonas aeruginosa SR27001 in presence of human apo-transferrin by broth microdilution method; format: functional
Pseudomonas aeruginosa [4] = experiment: Antimicrobial activity against VIM-2 producing Pseudomonas aeruginosa SBRKM-28 in presence of human apo-transferrin by broth microdilution method; format: functional
Pseudomonas aeruginosa [5] = experiment: Antimicrobial activity against IMP-1 producing Pseudomonas aeruginosa SR27060 in presence of human apo-transferrin by broth microdilution method; format: functional
Pseudomonas aeruginosa [6] = experiment: Antimicrobial activity against Pseudomonas aeruginosa 27060deltaR1 harboring deletion of R1 plasmid in presence of human apo-transferrin by broth microdilution method; format: functional
[7] = tested on: Stenotrophomonas maltophilia; experiment: Antimicrobial activity against L-1 producing Stenotrophomonas maltophilia SR21970 in presence of human apo-transferrin by broth microdilution method; format: functional
Acinetobacter baumannii = experiment: Antimicrobial activity against OXA-23/OXA-58 producing Acinetobacter baumannii SR27323 in presence of human apo-transferrin by broth microdilution method; format: functional
Klebsiella pneumoniae = experiment: Antimicrobial activity against KPC-2 producing Klebsiella pneumoniae ATCC BAA-1705 in presence of human apo-transferrin by broth microdilution method; format: functional
Escherichia coli = experiment: Antimicrobial activity against SHV-4 producing Escherichia coli ATCC BAA-200 in presence of human apo-transferrin by broth microdilution method; format: functional
[8] = Iron chelating activity in presence of cetyltrimethylammonium bromide at pH 5.5 by chromeazurol B dye based spectrophotometric method
Pseudomonas aeruginosa [9] = experiment: Antibacterial activity against Pseudomonas aeruginosa SR27001 infected in Jcl:ICR mouse systemic infection model assessed as increase in mouse survival rate administered iv 1 to 5 hrs post infection measured over 7 days; format: functional

In the case of `CC(C)(O/N=C(\C(=O)N[C@@H]1C(=O)N2C(C(=O)[O-])=C(C[N+]3(CCNC(=O)c4ccc(O)c(O)c4)CCCC3)CS[C@H]12)c1csc(N)n1)C(=O)O`, the MIC (Pseudomonas aeruginosa [1]) is reported as 0.125 µg/mL, the MIC (Pseudomonas aeruginosa [2]) is reported as 1 µg/mL and the MIC (Pseudomonas aeruginosa [3]) is reported as 2 µg/mL. For the same compound, the MIC (Pseudomonas aeruginosa [4]) was 0.25 µg/mL, the MIC (Pseudomonas aeruginosa [5]) was 2 µg/mL and the MIC (Pseudomonas aeruginosa [6]) was 2 µg/mL. The MIC [7] was 2 µg/mL, the MIC (Acinetobacter baumannii) was 16 µg/mL and the MIC (Klebsiella pneumoniae) was 0.5 µg/mL. For the same compound, the MIC (Escherichia coli) was 2 µg/mL and the Activity [8] was “Active”.

`CC(C)(O/N=C(\C(=O)N[C@@H]1C(=O)N2C(C(=O)[O-])=C(C[N+]3(CCNC(=O)c4cc(Cl)c(O)c(O)c4Cl)CCCC3)CS[C@H]12)c1csc(N)n1)C(=O)O` gave an MIC (Pseudomonas aeruginosa [1]) of 0.125 µg/mL, an MIC (Pseudomonas aeruginosa [2]) of 0.25 µg/mL and an MIC (Pseudomonas aeruginosa [3]) of 0.5 µg/mL. The MIC (Pseudomonas aeruginosa [4]) was 0.063 µg/mL, the MIC (Pseudomonas aeruginosa [5]) was 2 µg/mL and the MIC (Pseudomonas aeruginosa [6]) was 0.5 µg/mL. For the same compound, the MIC [7] was 0.125 µg/mL, the MIC (Acinetobacter baumannii) was 0.25 µg/mL and the MIC (Klebsiella pneumoniae) was 0.031 µg/mL. The MIC (Escherichia coli) was 0.5 µg/mL and the Activity [8] was “Active”.

With `CC(C)(O/N=C(\C(=O)N[C@@H]1C(=O)N2C(C(=O)[O-])=C(C[N+]3(CCNC(=O)c4ccc(O)c(O)c4O)CCCC3)CS[C@H]12)c1csc(N)n1)C(=O)O` the MIC (Pseudomonas aeruginosa [1]) was 1 µg/mL, the MIC (Pseudomonas aeruginosa [2]) was 2 µg/mL and the MIC (Pseudomonas aeruginosa [3]) was 32 µg/mL. The MIC (Pseudomonas aeruginosa [5]) was 16 µg/mL, the MIC (Pseudomonas aeruginosa [6]) was 4 µg/mL and the MIC [7] was 8 µg/mL. It also gave an MIC (Acinetobacter baumannii) of 32 µg/mL, an MIC (Klebsiella pneumoniae) of 1 µg/mL and an MIC (Escherichia coli) of 32 µg/mL. The Activity [8] was “Active”.

`CC(C)(O/N=C(\C(=O)N[C@@H]1C(=O)N2C(C(=O)[O-])=C(C[N+]3(CCNC(=O)c4cc(=O)c(O)c[nH]4)CCCC3)CS[C@H]12)c1csc(N)n1)C(=O)O` showed an MIC (Pseudomonas aeruginosa [1]) of 0.25 µg/mL, an MIC (Pseudomonas aeruginosa [2]) of 0.25 µg/mL and an MIC (Pseudomonas aeruginosa [3]) of 4 µg/mL. It also gave an MIC (Pseudomonas aeruginosa [4]) of 0.25 µg/mL, an MIC (Pseudomonas aeruginosa [5]) of 4 µg/mL and an MIC (Pseudomonas aeruginosa [6]) of 1 µg/mL. The MIC [7] was 0.25 µg/mL, the MIC (Acinetobacter baumannii) was 1 µg/mL and the MIC (Klebsiella pneumoniae) was 0.063 µg/mL. The MIC (Escherichia coli) was 1 µg/mL, the ED50 (Pseudomonas aeruginosa [9]) was 10.2 mg/kg and the Activity [8] was “Active”.

`Cc1c(C(=O)NCC[N+]2(CC3=C(C(=O)[O-])N4C(=O)[C@@H](NC(=O)/C(=N\OC(C)(C)C(=O)O)c5csc(N)n5)[C@H]4SC3)CCCC2)ccc(O)c1O` gave an MIC (Pseudomonas aeruginosa [1]) of 0.5 µg/mL, an MIC (Pseudomonas aeruginosa [2]) of 1 µg/mL and an MIC (Pseudomonas aeruginosa [3]) of 8 µg/mL. The MIC (Pseudomonas aeruginosa [5]) was 8 µg/mL, the MIC (Pseudomonas aeruginosa [6]) was 2 µg/mL and the MIC [7] was 1 µg/mL. The MIC (Acinetobacter baumannii) was 8 µg/mL, the MIC (Klebsiella pneumoniae) was 0.25 µg/mL and the MIC (Escherichia coli) was 8 µg/mL. For the same compound, the Activity [8] was “Active”.

Work on `CC(C)(O/N=C(\C(=O)N[C@@H]1C(=O)N2C(C(=O)[O-])=C(C[N+]3(CCNC(=O)c4ccc(O)c(O)c4Cl)CCCC3)CS[C@H]12)c1csc(N)n1)C(=O)O` [CEFIDEROCOL] yielded an MIC (Pseudomonas aeruginosa [1]) of 0.25 µg/mL, an MIC (Pseudomonas aeruginosa [2]) of 0.5 µg/mL and an MIC (Pseudomonas aeruginosa [3]) of 1 µg/mL. It also gave an MIC (Pseudomonas aeruginosa [5]) of 2 µg/mL, an MIC (Pseudomonas aeruginosa [6]) of 1 µg/mL and an MIC (Acinetobacter baumannii) of 1 µg/mL. It also gave an MIC (Klebsiella pneumoniae) of 0.063 µg/mL, an MIC (Escherichia coli) of 1 µg/mL and an ED50 (Pseudomonas aeruginosa [9]) of 5.48 mg/kg. For the same compound, the Activity [8] was “Active”.
